This is an account of results in patent US20250288590A1, “DRUG SUSTAINED-RELEASE TABLET FOR TREATING LIVER DISEASE, PREPARATION METHOD THEREFOR AND USE THEREOF” (CHANGCHUN INTELLICROWN PHARMACEUTICAL CO., LTD., priority 2022, published 2025).

The nature of data set [1]: pharmacokinetics in Beagle dogs, oral administration of the compound. The format is in vivo.
Data set [2] can be described thus: rat pharmacokinetic studies, oral administration. The format is in vivo. The note with it: rats.
Data set [3] in a line: solubility, pH dependence. The format is physicochemical. The conditions noted are these: mesylate; increasing pH.

Turning to `COC(=O)c1cc(OC)c2c(c1-c1c(CN3CCOCC3)cc(OC)c3c1OCO3)OCO2` [IMM-H014, methyl 7,7′-dimethoxy-5′-(morpholinomethyl)-[4,4′-bibenzo[d][1,3]dioxole]-5-carboxylate], the half-life is roughly 3.5 h in data set [1] (dog, blood, Beagle dogs, read-out: elimination half-life (converted)) and roughly 1.8 h in data set [2] (rat, blood, oral administration, read-out: elimination half-life (converted)). Besides, in data set [1] (dogs), the “time to peak blood concentration (Tmax)” value came out at 0.5 h. The bioavailability in data set [2] (rat, blood, oral) was found to be 96.3%. Moreover, the “peak blood concentration (time)” value in data set [2] (oral administration) is recorded as 0.5 h. Further, the “solubility (pH-dependent)” value in data set [3] is on record as “as the pH increases, the solubility gradually decreases”.
